Patent US5962636A, “Peptides capable of modulating inflammatory heart disease” (priority 1998, dated 1999)

System: Balb/c mice
Assay: Oligodeoxynucleotides as adjuvants: immunization with M7A-alpha peptide plus oligo; presence and severity of inflammatory heart disease
Format: in vivo
Details: for Prevalence / Severity: day 21; for immunostimulatory / adjuvant activity: result in words, with M7A-alpha peptide, in the absence of Freund's complete adjuvant; for Severity: score ± SD, scale as in Example 1, adjuvant given with M7A-alpha peptide
[1] = adjuvant given with about 50 micrograms M7A-alpha peptide, days 0 and 7, oligos about 10 nmol with Freund's incomplete adjuvant

GTACTGACGTTTACTCTTGG (chemistry not given here) [CpG, oligonucleotide with CpG motif derived from DNA encoding a 60 kDa cysteine rich outer membrane protein from Chlamydia trachomatis]
Prevalence (about 10 nmol oligo without peptide (Peptide: None)): 0/5 | Prevalence [1]: 5/5 | immunostimulatory / adjuvant activity: potent immunostimulator | Severity: 1.2 ± 0.4

GTACTGAGCTTTACTCTTGG (chemistry not given here) [non-CpG, counterpart of the CpG oligo not containing the CpG motif, reference compound]
Prevalence [1]: 1/5 | immunostimulatory / adjuvant activity: hardly effective as an adjuvant | Severity: 1.0 ± 0.0
